From ChEMBL document CHEMBL2029241, “Synthesis, characterization and in vitro anti-tumor activities of matrine derivatives” (Bioorg Med Chem Lett, 2012) come the findings set out here.

Broadly, the IC50 is the concentration that inhibits the measured activity by half.

In brackets after ≈: the same amount, converted by molar mass.

What all share (type): functional, cell-based
One test has as its system B16-F10. Kind of test: Cytotoxicity against mouse B16F10 cells after 48 hrs by MTT assay. Background: Formazan colour is commonly taken as a measure of viable cells.
The nature of test [1]: Cytotoxicity against human HEP7402 cells after 48 hrs by MTT assay.
Another test deals with A549. Nature of the test: Cytotoxicity against human A549 cells after 48 hrs by MTT assay.
A short description of test [2]: Cytotoxicity against human TW03 cells after 48 hrs by MTT assay.
The mark [3] stands for this setting: Homo sapiens, A549, 48 h, read-out: IC50.
Where [4] appears, read: Mus musculus, B16-F10, 48 h, read-out: IC50.
[5] abbreviates: Homo sapiens, 48 h, read-out: IC50.
The mark [6] stands for this setting: Homo sapiens, TW03, 48 h, read-out: IC50.

For `O=C(O)CCCC1NCC2CCCN3CCCC1C23` (stereo not drawn), the 50% inhibitory concentration (IC50) result (in the test with B16-F10 (b16-f10); in test [1]; in the test on A549 (a549); in test [2] (tw03)) was “Not Active” each time.

Consider `COC(=O)CCCC1NCC2CCCN3CCCC1C23` (stereo not drawn), for which the IC50 entry was “Not Active” in the test with B16-F10 (b16-f10), “Not Active” in test [1], 31.4 µg/mL (≈ 112 µM) with A549 (setting [3]) and “Not Active” in test [2] (tw03).

`CCOC(=O)CCCC1NCC2CCCN3CCCC1C23` (stereo not drawn): the IC50 entry with B16-F10 (b16-f10) was “Not Active”; in test [1] it was “Not Active”; in the test on A549 (setting [3]) it was 32.3 µg/mL (≈ 110 µM); in test [2] (tw03) it was “Not Active”.

As to `NC(=O)CCCC1NCC2CCCN3CCCC1C23` (stereo not drawn), the concentration for half-maximal inhibition (IC50) with B16-F10 (setting [4]) was 12.9 µg/mL (≈ 48.6 µM); in test [1] (setting [5]), 11.4 µg/mL (≈ 43 µM); in the test on A549 (setting [3]) it was 18.6 µg/mL (≈ 70.1 µM); in test [2] (setting [6]), 21.7 µg/mL (≈ 81.8 µM).

As to `C1CCN2C[C@@H]3CCCN4CCC[C@@H]([C@H]34)[C@H]2C1`, the half-inhibitory concentration (IC50) result (with B16-F10 (b16-f10); in test [1]; in the test on A549 (a549); in test [2] (tw03)) was “Not Active” in each case.

On to `O=C1/C(=C/c2ccccc2)CC[C@@H]2[C@H]3CCCN4CCC[C@@H](CN12)[C@@H]34`, for which the half-maximal inhibitory concentration (IC50) worked out at 5.7 µg/mL (≈ 16.9 µM) in the test with B16-F10 (setting [4]), 10 µg/mL (≈ 29.7 µM) in test [1] (setting [5]), 4.6 µg/mL (≈ 13.7 µM) in the test on A549 (setting [3]) and 2.4 µg/mL (≈ 7.13 µM) in test [2] (setting [6]).

As for `O=C1/C(=C/c2ccc([N+](=O)[O-])cc2)CC[C@@H]2[C@H]3CCCN4CCC[C@@H](CN12)[C@@H]34`, the IC50 with B16-F10 (setting [4]) amounted to 2.8 µg/mL (≈ 7.34 µM); in test [1] (setting [5]) it was 8.7 µg/mL (≈ 22.8 µM); with A549 (setting [3]), 6.2 µg/mL (≈ 16.3 µM); in test [2] (setting [6]) it was 3.7 µg/mL (≈ 9.7 µM).

Take `O=C1/C(=C/c2cccc([N+](=O)[O-])c2)CC[C@@H]2[C@H]3CCCN4CCC[C@@H](CN12)[C@@H]34`: the 50% inhibitory concentration (IC50) was 8.5 µg/mL (≈ 22.3 µM) in the test on B16-F10 (setting [4]), 5.3 µg/mL (≈ 13.9 µM) in test [1] (setting [5]), 7.6 µg/mL (≈ 19.9 µM) in the test on A549 (setting [3]) and 2.4 µg/mL (≈ 6.29 µM) in test [2] (setting [6]).

Turning to `O=C1/C(=C/c2ccc(F)cc2)CC[C@@H]2[C@H]3CCCN4CCC[C@@H](CN12)[C@@H]34`, the IC50 amounted to 2.5 µg/mL (≈ 7.05 µM) in the test on B16-F10 (setting [4]), 1.8 µg/mL (≈ 5.08 µM) in test [1] (setting [5]), 3 µg/mL (≈ 8.46 µM) in the test with A549 (setting [3]) and 1.9 µg/mL (≈ 5.36 µM) in test [2] (setting [6]).

Turning to `O=C1/C(=C/c2ccc(Cl)cc2)CC[C@@H]2[C@H]3CCCN4CCC[C@@H](CN12)[C@@H]34`, the half-inhibitory concentration (IC50) in the test with B16-F10 (setting [4]) stood at 3.9 µg/mL (≈ 10.5 µM); in test [1] (setting [5]) it was 1.6 µg/mL (≈ 4.31 µM); with A549 (setting [3]) it was 2.6 µg/mL (≈ 7.01 µM); in test [2] (setting [6]), 2.8 µg/mL (≈ 7.55 µM).

In the case of `O=C1/C(=C/c2ccc(Br)cc2)CC[C@@H]2[C@H]3CCCN4CCC[C@@H](CN12)[C@@H]34`, the IC50 was 2.6 µg/mL (≈ 6.26 µM) in the test with B16-F10 (setting [4]), 0.7 µg/mL (≈ 1.69 µM) in test [1] (setting [5]), 1.9 µg/mL (≈ 4.57 µM) in the test with A549 (setting [3]) and 3.2 µg/mL (≈ 7.7 µM) in test [2] (setting [6]).

Take `O=C1/C(=C/c2cccc(F)c2)CC[C@@H]2[C@H]3CCCN4CCC[C@@H](CN12)[C@@H]34`: the IC50 in the test with B16-F10 (setting [4]) was found to be 2.7 µg/mL (≈ 7.62 µM); in test [1] (setting [5]) it was 1.5 µg/mL (≈ 4.23 µM); with A549 (setting [3]), 3.4 µg/mL (≈ 9.59 µM); in test [2] (setting [6]), 2.2 µg/mL (≈ 6.21 µM).

Turning to `O=C1/C(=C/c2ccc(Cl)c(Cl)c2)CC[C@@H]2[C@H]3CCCN4CCC[C@@H](CN12)[C@@H]34`, the IC50 in the test on B16-F10 (setting [4]) was determined as 6.5 µg/mL (≈ 16 µM); in test [1] (setting [5]), 11.3 µg/mL (≈ 27.9 µM); with A549 (setting [3]), 4.7 µg/mL (≈ 11.6 µM); in test [2] (setting [6]), 6.3 µg/mL (≈ 15.5 µM).

As for `COc1ccc(/C=C2\CC[C@@H]3[C@H]4CCCN5CCC[C@@H](CN3C2=O)[C@@H]45)cc1`, the IC50 worked out at 0.8 µg/mL (≈ 2.18 µM) in the test on B16-F10 (setting [4]), 0.5 µg/mL (≈ 1.36 µM) in test [1] (setting [5]), 0.6 µg/mL (≈ 1.64 µM) in the test with A549 (setting [3]) and 1.2 µg/mL (≈ 3.27 µM) in test [2] (setting [6]).

`COc1cccc(/C=C2\CC[C@@H]3[C@H]4CCCN5CCC[C@@H](CN3C2=O)[C@@H]45)c1`: the IC50 was found to be 8.7 µg/mL (≈ 23.7 µM) in the test on B16-F10 (setting [4]), 3.4 µg/mL (≈ 9.28 µM) in test [1] (setting [5]), 2.3 µg/mL (≈ 6.28 µM) in the test on A549 (setting [3]) and 6.4 µg/mL (≈ 17.5 µM) in test [2] (setting [6]).

As for `COc1cc(/C=C2\CC[C@@H]3[C@H]4CCCN5CCC[C@@H](CN3C2=O)[C@@H]45)cc(OC)c1OC`, the half-inhibitory concentration (IC50) came out at 9.8 µg/mL (≈ 23 µM) with B16-F10 (setting [4]), 7.8 µg/mL (≈ 18.3 µM) in test [1] (setting [5]), 3.8 µg/mL (≈ 8.91 µM) in the test with A549 (setting [3]) and 5.5 µg/mL (≈ 12.9 µM) in test [2] (setting [6]).

Regarding `O=C1/C(=C/c2ccncc2)CC[C@@H]2[C@H]3CCCN4CCC[C@@H](CN12)[C@@H]34`, the half-inhibitory concentration (IC50) with B16-F10 (setting [4]) is 6.2 µg/mL (≈ 18.4 µM); in test [1] (setting [5]), 8.6 µg/mL (≈ 25.5 µM); with A549 (setting [3]), 5.7 µg/mL (≈ 16.9 µM); in test [2] (setting [6]) it was 4.4 µg/mL (≈ 13 µM).

For the compound `O=C(c1ccccc1)C1CC[C@@H]2[C@H]3CCCN4CCC[C@@H](CN2C1=O)[C@@H]34` (stereo partly drawn), the IC50 was determined as 10.6 µg/mL (≈ 30.1 µM) in the test with B16-F10 (setting [4]), 4.3 µg/mL (≈ 12.2 µM) in test [1] (setting [5]), 3.6 µg/mL (≈ 10.2 µM) in the test on A549 (setting [3]) and 2.4 µg/mL (≈ 6.81 µM) in test [2] (setting [6]).

For the compound `O=C(c1ccco1)C1CC[C@@H]2[C@H]3CCCN4CCC[C@@H](CN2C1=O)[C@@H]34` (stereo partly drawn), the IC50 in the test with B16-F10 (setting [4]) was found to be 12.9 µg/mL (≈ 37.7 µM); in test [1] (setting [5]) it was 11.8 µg/mL (≈ 34.5 µM); in the test with A549 (setting [3]), 6.6 µg/mL (≈ 19.3 µM); in test [2] (setting [6]), 4.9 µg/mL (≈ 14.3 µM).

As to `O=C(c1cccs1)C1CC[C@@H]2[C@H]3CCCN4CCC[C@@H](CN2C1=O)[C@@H]34` (stereo partly drawn), the half-inhibitory concentration (IC50) was 4.5 µg/mL (≈ 12.6 µM) with B16-F10 (setting [4]), 7.5 µg/mL (≈ 20.9 µM) in test [1] (setting [5]), 2.3 µg/mL (≈ 6.42 µM) in the test on A549 (setting [3]) and 8.1 µg/mL (≈ 22.6 µM) in test [2] (setting [6]).

On to `COc1cc2c(c(OC)c1OC)-c1ccc(OC)c(=O)cc1[C@@H](NC(C)=O)CC2` [COLCHICINE], for which the IC50 turned out to be 0.8 µg/mL (≈ 2 µM) in the test on B16-F10 (setting [4]), 0.4 µg/mL (≈ 1 µM) in test [1] (setting [5]), 0.2 µg/mL (≈ 0.501 µM) in the test on A549 (setting [3]) and 1.3 µg/mL (≈ 3.25 µM) in test [2] (setting [6]).

Regarding `O=C1CCC[C@@H]2[C@H]3CCCN4CCC[C@@H](CN12)[C@@H]34` [MATRINE], the IC50 in the test with B16-F10 (setting [4]) was 17 µg/mL (≈ 68.4 µM); in test [1] (setting [5]), 15.3 µg/mL (≈ 61.6 µM); in the test with A549 (setting [3]), 9.7 µg/mL (≈ 39.1 µM); in test [2] (setting [6]), 16.3 µg/mL (≈ 65.6 µM).
